Data from publication PMC7407272, “Induction of Lysosome Membrane Permeabilization as a Therapeutic Strategy to Target Pancreatic Cancer Stem Cells” (Cancers, 2020).
pIC50: −log10 of the molar value.

Assays:
ULK3 = target: T1, ULK3 (Homo sapiens, UniProt Q6PHR2); experiment: KINOMEscan; type: binding; details: read-out: % Ctrl
T1 construct: purchased DiscoveRx KINOMEscan

INSRR = target: T2, INSRR (Homo sapiens, UniProt P14616); experiment: KINOMEscan; type: binding; details: read-out: % Ctrl
T2 construct: purchased DiscoveRx KINOMEscan

CSF1R-autoi. = target: T3, CSF1R-autoi. (Homo sapiens, UniProt P07333); experiment: KINOMEscan; type: binding; details: read-out: % Ctrl
T3 construct: purchased DiscoveRx KINOMEscan

FLT3(D835V) = target: T4, FLT3(D835V) (Homo sapiens, UniProt P36888, D835V); experiment: KINOMEscan; type: binding; details: read-out: % Ctrl
T4 construct: purchased DiscoveRx KINOMEscan

YSK1 = target: T5, YSK1 (Homo sapiens, UniProt O00506); experiment: KINOMEscan; type: binding; details: read-out: % Ctrl
T5 construct: purchased DiscoveRx KINOMEscan

LATS1 = target: T6, LATS1 (Homo sapiens, UniProt O95835); experiment: KINOMEscan; type: binding; details: read-out: % Ctrl
T6 construct: purchased DiscoveRx KINOMEscan

CLK2 = target: T7, CLK2 (Homo sapiens, UniProt P49760); experiment: KINOMEscan; type: binding; details: read-out: % Ctrl
T7 construct: purchased DiscoveRx KINOMEscan

ABL2 = target: T8, ABL2 (Homo sapiens, UniProt P42684); experiment: KINOMEscan; type: binding; details: read-out: % Ctrl
T8 construct: purchased DiscoveRx KINOMEscan

TYK2 = target: T9, TYK2 (Homo sapiens, UniProt P29597); experiment: TYK2 kinase assay (ProQinase); type: biochemical; details: kinase orthogonal assay
T9 construct: purchased ProQinase

SYK = target: T10, SYK (Homo sapiens, UniProt P43405); experiment: KINOMEscan; type: binding; details: read-out: % Ctrl
T10 construct: purchased DiscoveRx KINOMEscan

PRKD2 = target: T11, PRKD2 (Homo sapiens, UniProt Q9BZL6); experiment: KINOMEscan; type: binding; details: read-out: % Ctrl
T11 construct: purchased DiscoveRx KINOMEscan

FLT3 = target: T12, FLT3 (Homo sapiens, UniProt P36888); experiment: KINOMEscan; type: binding; details: read-out: % Ctrl
T12 construct: purchased DiscoveRx KINOMEscan

ERK1 = target: T13, ERK1 (Homo sapiens, UniProt P27361); experiment: KINOMEscan; type: binding; details: read-out: % Ctrl
T13 construct: purchased DiscoveRx KINOMEscan

MRCKA = target: T14, MRCKA (Homo sapiens, UniProt Q5VT25); experiment: KINOMEscan; type: binding; details: read-out: % Ctrl
T14 construct: purchased DiscoveRx KINOMEscan

RAF1 = target: T15, RAF1 (Homo sapiens, UniProt P04049); experiment: KINOMEscan; type: binding; details: read-out: % Ctrl
T15 construct: purchased DiscoveRx KINOMEscan

ABL1(E255K)-P = target: T16, ABL1(E255K)-P (Homo sapiens, UniProt P00519, E255K); experiment: KINOMEscan; type: binding; details: read-out: % Ctrl
T16 construct: purchased DiscoveRx KINOMEscan

BMX = target: T17, BMX (Homo sapiens, UniProt P51813); experiment: KINOMEscan; type: binding; details: read-out: % Ctrl
T17 construct: purchased DiscoveRx KINOMEscan

DYRK2 = target: T18, DYRK2 (Homo sapiens, UniProt Q92630); experiment: KINOMEscan; type: binding; details: read-out: % Ctrl
T18 construct: purchased DiscoveRx KINOMEscan

ACVR2B = target: T19, ACVR2B (Homo sapiens, UniProt Q13705); experiment: KINOMEscan; type: binding; details: read-out: % Ctrl
T19 construct: purchased DiscoveRx KINOMEscan

ABL1-nonP = target: T20, ABL1-nonP (Homo sapiens, UniProt P00519); experiment: KINOMEscan; type: binding; details: read-out: % Ctrl
T20 construct: purchased DiscoveRx KINOMEscan

BIKE = target: T21, BIKE (Homo sapiens, UniProt Q9NSY1); experiment: KINOMEscan; type: binding; details: read-out: % Ctrl
T21 construct: purchased DiscoveRx KINOMEscan

FLT4 = target: T22, FLT4 (Homo sapiens, UniProt P35916); experiment: KINOMEscan; type: binding; details: read-out: % Ctrl
T22 construct: purchased DiscoveRx KINOMEscan

RSK4(KD1-N-t.) = target: T23, RSK4(KD1-N-t.) (Homo sapiens, UniProt Q9UK32); experiment: KINOMEscan; type: binding; details: read-out: % Ctrl
T23 construct: RSK4(KD1-N-t.); purchased DiscoveRx KINOMEscan

MLK1 = target: T24, MLK1 (Homo sapiens, UniProt P80192); experiment: KINOMEscan; type: binding; details: read-out: % Ctrl
T24 construct: purchased DiscoveRx KINOMEscan

KIT(V559D,T670I) = target: T25, KIT(V559D,T670I) (Homo sapiens, UniProt P10721, T670I/V559D); experiment: KINOMEscan; type: binding; details: read-out: % Ctrl
T25 construct: purchased DiscoveRx KINOMEscan

GRK1 = target: T26, GRK1 (Homo sapiens, UniProt Q15835); experiment: KINOMEscan; type: binding; details: read-out: % Ctrl
T26 construct: purchased DiscoveRx KINOMEscan

MAP4K3 = target: T27, MAP4K3 (Homo sapiens, UniProt Q8IVH8); experiment: KINOMEscan; type: binding; details: read-out: % Ctrl
T27 construct: purchased DiscoveRx KINOMEscan

MAP4K2 = target: T28, MAP4K2 (Homo sapiens, UniProt Q12851); experiment: KINOMEscan; type: binding; details: read-out: % Ctrl
T28 construct: purchased DiscoveRx KINOMEscan

CAMK1 = target: T29, CAMK1 (Homo sapiens, UniProt Q14012); experiment: KINOMEscan; type: binding; details: read-out: % Ctrl
T29 construct: purchased DiscoveRx KINOMEscan

PIP5K1A = target: T30, PIP5K1A (Homo sapiens, UniProt Q99755); experiment: KINOMEscan; type: binding; details: read-out: % Ctrl
T30 construct: purchased DiscoveRx KINOMEscan

ABL1-P = target: T31, ABL1-P (Homo sapiens, UniProt P00519); experiment: KINOMEscan; type: binding; details: read-out: % Ctrl
T31 construct: purchased DiscoveRx KINOMEscan

LOK = target: T32, LOK (Homo sapiens, UniProt O94804); experiment: KINOMEscan; type: binding; details: read-out: % Ctrl
T32 construct: purchased DiscoveRx KINOMEscan

TRKC = target: T33, TRKC (Homo sapiens, UniProt Q16288); experiment: KINOMEscan; type: binding; details: read-out: % Ctrl
T33 construct: purchased DiscoveRx KINOMEscan

ASK1 = target: T34, ASK1 (Homo sapiens, UniProt Q99683); experiment: KINOMEscan; type: binding; details: read-out: % Ctrl
T34 construct: purchased DiscoveRx KINOMEscan

TRKA = target: T35, TRKA (Homo sapiens, UniProt P04629); experiment: KINOMEscan; type: binding; details: read-out: % Ctrl
T35 construct: purchased DiscoveRx KINOMEscan

NDR2 = target: T36, NDR2 (Homo sapiens, UniProt Q9Y2H1); experiment: KINOMEscan; type: binding; details: read-out: % Ctrl
T36 construct: purchased DiscoveRx KINOMEscan

STK33 = target: T37, STK33 (Homo sapiens, UniProt Q9BYT3); experiment: KINOMEscan; type: binding; details: read-out: % Ctrl
T37 construct: purchased DiscoveRx KINOMEscan

ERN1 = target: T38, ERN1 (Homo sapiens, UniProt O75460); experiment: KINOMEscan; type: binding; details: read-out: % Ctrl
T38 construct: purchased DiscoveRx KINOMEscan

FGFR2 = target: T39, FGFR2 (Homo sapiens, UniProt P21802); experiment: KINOMEscan; type: binding; details: read-out: % Ctrl
T39 construct: purchased DiscoveRx KINOMEscan

EPHB2 = target: T40, EPHB2 (Homo sapiens, UniProt P29323); experiment: KINOMEscan; type: binding; details: read-out: % Ctrl
T40 construct: purchased DiscoveRx KINOMEscan

MYO3A = target: T41, MYO3A (Homo sapiens, UniProt Q8NEV4); experiment: KINOMEscan; type: binding; details: read-out: % Ctrl
T41 construct: purchased DiscoveRx KINOMEscan

CDKL5 = target: T42, CDKL5 (Homo sapiens, UniProt O76039); experiment: KINOMEscan; type: binding; details: read-out: % Ctrl
T42 construct: purchased DiscoveRx KINOMEscan

TAOK3 = target: T43, TAOK3 (Homo sapiens, UniProt Q9H2K8); experiment: KINOMEscan; type: binding; details: read-out: % Ctrl
T43 construct: purchased DiscoveRx KINOMEscan

FLT3(D835H) = target: T44, FLT3(D835H) (Homo sapiens, UniProt P36888, D835H); experiment: KINOMEscan; type: binding; details: read-out: % Ctrl
T44 construct: purchased DiscoveRx KINOMEscan

T40 sequence (P29323 19-1055): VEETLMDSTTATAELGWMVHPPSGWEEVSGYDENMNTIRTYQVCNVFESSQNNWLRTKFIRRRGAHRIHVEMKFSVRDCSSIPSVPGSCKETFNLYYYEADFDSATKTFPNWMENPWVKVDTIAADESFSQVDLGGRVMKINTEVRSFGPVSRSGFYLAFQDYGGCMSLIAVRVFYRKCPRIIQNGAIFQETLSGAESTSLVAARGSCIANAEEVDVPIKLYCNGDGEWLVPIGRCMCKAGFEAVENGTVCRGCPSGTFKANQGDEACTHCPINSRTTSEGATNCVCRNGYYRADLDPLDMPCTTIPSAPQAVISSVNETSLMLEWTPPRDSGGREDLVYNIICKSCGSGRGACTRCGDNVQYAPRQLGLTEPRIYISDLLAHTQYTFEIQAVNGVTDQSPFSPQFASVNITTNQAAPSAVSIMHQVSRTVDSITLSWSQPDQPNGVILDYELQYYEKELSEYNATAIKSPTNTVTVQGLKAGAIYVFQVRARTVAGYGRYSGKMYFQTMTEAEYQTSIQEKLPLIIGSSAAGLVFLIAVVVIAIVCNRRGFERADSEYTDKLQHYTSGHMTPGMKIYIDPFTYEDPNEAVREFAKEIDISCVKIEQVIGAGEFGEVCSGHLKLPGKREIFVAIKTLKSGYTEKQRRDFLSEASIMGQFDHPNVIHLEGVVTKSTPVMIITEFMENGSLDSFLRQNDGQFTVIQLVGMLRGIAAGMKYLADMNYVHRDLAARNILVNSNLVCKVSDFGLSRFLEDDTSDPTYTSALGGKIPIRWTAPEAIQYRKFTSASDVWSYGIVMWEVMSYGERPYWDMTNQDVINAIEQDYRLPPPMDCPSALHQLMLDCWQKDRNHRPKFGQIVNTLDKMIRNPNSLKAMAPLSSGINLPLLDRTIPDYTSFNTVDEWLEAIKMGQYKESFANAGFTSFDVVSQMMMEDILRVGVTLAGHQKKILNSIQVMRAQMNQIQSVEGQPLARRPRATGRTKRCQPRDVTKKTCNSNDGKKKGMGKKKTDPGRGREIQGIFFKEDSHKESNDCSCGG
T37 sequence (Q9BYT3 whole entry): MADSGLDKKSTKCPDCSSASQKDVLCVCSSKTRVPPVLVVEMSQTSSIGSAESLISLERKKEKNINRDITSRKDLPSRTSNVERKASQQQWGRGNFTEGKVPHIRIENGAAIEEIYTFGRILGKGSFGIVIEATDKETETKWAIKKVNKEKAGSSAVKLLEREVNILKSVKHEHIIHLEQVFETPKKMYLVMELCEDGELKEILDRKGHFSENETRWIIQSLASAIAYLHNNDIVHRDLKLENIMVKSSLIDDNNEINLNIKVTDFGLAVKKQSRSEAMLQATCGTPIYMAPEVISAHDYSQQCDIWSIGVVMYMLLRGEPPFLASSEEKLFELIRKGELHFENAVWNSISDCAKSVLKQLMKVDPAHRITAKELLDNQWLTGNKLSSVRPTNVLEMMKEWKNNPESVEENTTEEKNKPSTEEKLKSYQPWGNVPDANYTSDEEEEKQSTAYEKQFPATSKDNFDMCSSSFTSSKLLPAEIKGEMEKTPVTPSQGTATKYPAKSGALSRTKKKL
T26 sequence (Q15835 whole entry): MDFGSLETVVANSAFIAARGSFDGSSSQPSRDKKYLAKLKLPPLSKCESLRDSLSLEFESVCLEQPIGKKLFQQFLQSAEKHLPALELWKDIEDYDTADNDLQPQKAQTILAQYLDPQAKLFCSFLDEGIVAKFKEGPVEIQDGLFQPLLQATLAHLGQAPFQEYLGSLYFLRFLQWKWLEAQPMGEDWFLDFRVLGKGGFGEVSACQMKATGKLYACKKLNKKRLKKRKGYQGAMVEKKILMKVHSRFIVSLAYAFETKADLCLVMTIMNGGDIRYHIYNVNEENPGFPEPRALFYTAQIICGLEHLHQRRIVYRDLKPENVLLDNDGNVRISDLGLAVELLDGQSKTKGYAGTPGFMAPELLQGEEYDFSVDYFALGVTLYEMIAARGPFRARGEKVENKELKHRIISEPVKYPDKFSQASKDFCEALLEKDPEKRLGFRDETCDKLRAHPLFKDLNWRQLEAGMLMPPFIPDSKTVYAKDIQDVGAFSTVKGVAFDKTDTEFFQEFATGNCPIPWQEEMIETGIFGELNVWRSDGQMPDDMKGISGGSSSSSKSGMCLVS
T6 sequence (O95835 whole entry): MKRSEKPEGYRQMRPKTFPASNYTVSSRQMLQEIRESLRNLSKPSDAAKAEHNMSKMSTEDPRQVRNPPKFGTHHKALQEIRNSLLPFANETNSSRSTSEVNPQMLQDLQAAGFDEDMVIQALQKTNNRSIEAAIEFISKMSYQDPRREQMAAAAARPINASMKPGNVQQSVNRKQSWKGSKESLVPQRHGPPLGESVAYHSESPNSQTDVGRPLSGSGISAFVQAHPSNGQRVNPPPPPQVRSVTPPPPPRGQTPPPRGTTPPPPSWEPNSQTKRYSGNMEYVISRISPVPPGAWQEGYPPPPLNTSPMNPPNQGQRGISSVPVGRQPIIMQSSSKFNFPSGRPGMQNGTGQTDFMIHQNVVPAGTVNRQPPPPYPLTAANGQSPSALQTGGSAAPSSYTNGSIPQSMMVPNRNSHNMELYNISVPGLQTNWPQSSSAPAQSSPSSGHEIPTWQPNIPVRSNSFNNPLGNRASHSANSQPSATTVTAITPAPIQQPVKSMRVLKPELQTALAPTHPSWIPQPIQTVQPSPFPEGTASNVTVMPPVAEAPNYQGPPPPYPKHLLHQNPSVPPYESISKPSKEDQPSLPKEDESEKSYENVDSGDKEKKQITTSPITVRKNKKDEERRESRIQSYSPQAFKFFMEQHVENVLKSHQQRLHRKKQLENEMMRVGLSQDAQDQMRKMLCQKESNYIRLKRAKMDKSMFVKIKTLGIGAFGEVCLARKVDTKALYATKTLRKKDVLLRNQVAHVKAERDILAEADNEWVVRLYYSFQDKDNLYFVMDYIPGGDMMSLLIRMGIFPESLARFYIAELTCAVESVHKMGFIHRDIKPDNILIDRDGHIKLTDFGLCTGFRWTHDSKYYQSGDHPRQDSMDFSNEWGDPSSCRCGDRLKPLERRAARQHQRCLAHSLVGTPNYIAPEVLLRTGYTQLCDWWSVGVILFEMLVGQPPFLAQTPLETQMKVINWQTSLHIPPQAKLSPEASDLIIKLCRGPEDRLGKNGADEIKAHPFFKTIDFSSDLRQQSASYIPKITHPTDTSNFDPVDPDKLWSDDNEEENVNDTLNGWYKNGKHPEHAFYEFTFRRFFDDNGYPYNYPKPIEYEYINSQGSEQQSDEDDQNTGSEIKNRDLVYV
T5 sequence (O00506 whole entry): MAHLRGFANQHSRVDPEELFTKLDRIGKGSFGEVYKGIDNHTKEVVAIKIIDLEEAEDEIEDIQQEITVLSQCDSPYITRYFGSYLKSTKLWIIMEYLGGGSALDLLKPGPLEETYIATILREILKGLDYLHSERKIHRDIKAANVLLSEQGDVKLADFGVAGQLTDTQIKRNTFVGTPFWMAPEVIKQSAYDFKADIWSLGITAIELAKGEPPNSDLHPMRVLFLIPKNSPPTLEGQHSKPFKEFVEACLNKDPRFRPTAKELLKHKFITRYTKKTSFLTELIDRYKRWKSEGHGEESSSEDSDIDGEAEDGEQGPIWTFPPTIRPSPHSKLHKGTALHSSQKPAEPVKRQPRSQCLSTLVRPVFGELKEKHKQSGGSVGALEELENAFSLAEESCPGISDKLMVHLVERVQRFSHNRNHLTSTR
T8 sequence (P42684 whole entry): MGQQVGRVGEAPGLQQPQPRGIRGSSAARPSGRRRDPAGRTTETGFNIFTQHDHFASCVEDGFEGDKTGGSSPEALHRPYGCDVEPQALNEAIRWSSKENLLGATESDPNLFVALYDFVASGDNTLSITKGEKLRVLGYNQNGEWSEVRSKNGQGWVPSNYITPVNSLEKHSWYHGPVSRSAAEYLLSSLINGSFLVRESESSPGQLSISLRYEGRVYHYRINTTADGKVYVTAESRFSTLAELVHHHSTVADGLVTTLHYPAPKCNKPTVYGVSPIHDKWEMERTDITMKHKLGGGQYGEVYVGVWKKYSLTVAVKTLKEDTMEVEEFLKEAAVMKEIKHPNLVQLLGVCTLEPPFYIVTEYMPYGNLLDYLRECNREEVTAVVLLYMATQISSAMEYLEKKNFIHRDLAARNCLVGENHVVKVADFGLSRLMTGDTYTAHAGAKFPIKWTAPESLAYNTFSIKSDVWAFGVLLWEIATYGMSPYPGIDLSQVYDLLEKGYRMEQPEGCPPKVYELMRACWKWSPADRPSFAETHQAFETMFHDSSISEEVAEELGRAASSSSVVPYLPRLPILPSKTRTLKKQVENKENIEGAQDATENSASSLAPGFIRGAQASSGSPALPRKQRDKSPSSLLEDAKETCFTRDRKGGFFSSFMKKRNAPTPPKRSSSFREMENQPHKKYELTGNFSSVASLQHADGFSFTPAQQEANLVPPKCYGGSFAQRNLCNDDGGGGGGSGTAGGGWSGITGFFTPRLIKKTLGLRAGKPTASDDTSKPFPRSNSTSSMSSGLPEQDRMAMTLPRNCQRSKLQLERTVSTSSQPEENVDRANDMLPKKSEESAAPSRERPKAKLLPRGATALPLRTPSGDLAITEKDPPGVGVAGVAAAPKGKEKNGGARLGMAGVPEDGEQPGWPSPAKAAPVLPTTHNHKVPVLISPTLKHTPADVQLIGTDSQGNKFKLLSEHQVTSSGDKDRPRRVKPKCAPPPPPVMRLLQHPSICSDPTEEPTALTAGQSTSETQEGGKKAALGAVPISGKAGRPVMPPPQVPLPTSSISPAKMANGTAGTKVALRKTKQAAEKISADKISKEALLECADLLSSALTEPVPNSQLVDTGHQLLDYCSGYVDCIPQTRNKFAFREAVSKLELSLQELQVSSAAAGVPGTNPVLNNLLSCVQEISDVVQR

SMILES: CN1CCC(CNc2ccc3ncc(C(=O)Nc4cccc(OC(F)(F)F)c4)n3n2)CC1 [Cpd 2]
- remaining binding at 1 µM (ULK3): 78%
- remaining binding at 1 µM (INSRR): 94%
- remaining binding at 1 µM (CSF1R-autoi.): 88%
- remaining binding at 1 µM (FLT3(D835V)): 0.45%
- remaining binding at 1 µM (YSK1): 95%
- remaining binding at 1 µM (LATS1): 100%
- remaining binding at 1 µM (CLK2): 81%
- remaining binding at 1 µM (ABL2): 96%
- pIC50 (TYK2): 4.19
- remaining binding at 1 µM (SYK): 94%
- remaining binding at 1 µM (PRKD2): 87%
- remaining binding at 1 µM (FLT3): 92%
- remaining binding at 1 µM (ERK1): 100%
- remaining binding at 1 µM (MRCKA): 100%
- remaining binding at 1 µM (RAF1): 100%
- remaining binding at 1 µM (ABL1(E255K)-P): 85%
- remaining binding at 1 µM (BMX): 100%
- remaining binding at 1 µM (DYRK2): 86%
- remaining binding at 1 µM (ACVR2B): 100%
- remaining binding at 1 µM (ABL1-nonP): 100%
- remaining binding at 1 µM (BIKE): 83%
- remaining binding at 1 µM (FLT4): 100%
- remaining binding at 1 µM (RSK4(KD1-N-t.)): 92%
- remaining binding at 1 µM (MLK1): 95%
- remaining binding at 1 µM (KIT(V559D,T670I)): 100%
- remaining binding at 1 µM (GRK1): 86%
- remaining binding at 1 µM (MAP4K3): 95%
- remaining binding at 1 µM (MAP4K2): 74%
- remaining binding at 1 µM (CAMK1): 98%
- remaining binding at 1 µM (PIP5K1A): 100%
- remaining binding at 1 µM (ABL1-P): 95%
- remaining binding at 1 µM (LOK): 90%
- remaining binding at 1 µM (TRKC): 70%
- remaining binding at 1 µM (ASK1): 100%
- remaining binding at 1 µM (TRKA): 82%
- remaining binding at 1 µM (NDR2): 91%
- remaining binding at 1 µM (STK33): 100%
- remaining binding at 1 µM (ERN1): 79%
- remaining binding at 1 µM (FGFR2): 100%
- remaining binding at 1 µM (EPHB2): 95%
- remaining binding at 1 µM (MYO3A): 91%
- remaining binding at 1 µM (CDKL5): 100%
- remaining binding at 1 µM (TAOK3): 99%
- remaining binding at 1 µM (FLT3(D835H)): 74%
